The results in this text go back to publication PMC7179901, “The aerobic respiratory chain of Pseudomonas aeruginosa cultured in artificial urine media: Role of NQR and terminal oxidases” (PLoS ONE, 2020).

Molecules are shown by their SMILES.

For one test, the target named is T1, NQR (Pseudomonas aeruginosa, UniProt Q9HZK7+Q9HZK9).
T1 construct: gene nqrB; native NQR complex in LB and mAUM membranes; with six-subunit complex NqrA-F
Kind of test: HQNO titration of NADH-dependent oxygen consumption in isolated membranes. In kind it is biochemical.

The target of test [1] is T2, purified P. aeruginosa NQR (Pa-NQR) (Pseudomonas aeruginosa, UniProt Q9HZL1).
T2 construct: gene nqrF; […]; DDM-solubilized, Ni-NTA (tag not described) and DEAE purified; six-subunit complex; with Na(+)-translocating NADH-quinone reductase subunit A; Na(+)-translocating NADH-quinone reductase subunit B; Na(+)-translocating NADH-quinone reductase subunit C; Na(+)-translocating NADH-quinone reductase subunit D; Na(+)-translocating NADH-quinone reductase subunit E
Kind of test: ubiquinone reductase activity at […] nm. The test is classed as biochemical. The conditions noted are these: 50 μM ubiquinone-1, KHE buffer pH 7.5.

T2 sequence (Q9HZL1 whole entry): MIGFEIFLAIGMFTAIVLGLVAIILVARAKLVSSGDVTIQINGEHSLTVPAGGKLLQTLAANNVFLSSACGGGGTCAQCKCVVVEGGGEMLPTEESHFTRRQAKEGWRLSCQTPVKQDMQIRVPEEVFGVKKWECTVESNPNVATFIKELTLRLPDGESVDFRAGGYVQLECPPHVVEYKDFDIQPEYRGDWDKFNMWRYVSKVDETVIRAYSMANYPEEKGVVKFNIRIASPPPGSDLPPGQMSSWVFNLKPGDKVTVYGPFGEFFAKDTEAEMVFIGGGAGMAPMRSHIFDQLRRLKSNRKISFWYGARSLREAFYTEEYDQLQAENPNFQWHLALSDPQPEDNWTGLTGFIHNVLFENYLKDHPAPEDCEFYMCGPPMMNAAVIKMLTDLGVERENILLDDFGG
T2 sequence (Q9HZK6 whole entry partner): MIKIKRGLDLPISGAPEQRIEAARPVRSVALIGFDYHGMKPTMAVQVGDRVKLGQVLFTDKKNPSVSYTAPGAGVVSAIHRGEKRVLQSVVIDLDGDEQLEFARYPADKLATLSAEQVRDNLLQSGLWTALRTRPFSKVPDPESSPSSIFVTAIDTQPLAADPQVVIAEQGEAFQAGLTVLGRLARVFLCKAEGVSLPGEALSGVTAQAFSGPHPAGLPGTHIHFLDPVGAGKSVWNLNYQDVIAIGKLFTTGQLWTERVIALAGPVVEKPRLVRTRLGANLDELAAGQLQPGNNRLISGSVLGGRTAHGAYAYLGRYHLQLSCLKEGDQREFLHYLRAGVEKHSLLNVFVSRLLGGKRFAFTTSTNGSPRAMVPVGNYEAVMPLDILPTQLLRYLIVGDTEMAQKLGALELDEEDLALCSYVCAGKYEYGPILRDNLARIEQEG
T2 sequence (Q9HZK7 whole entry partner): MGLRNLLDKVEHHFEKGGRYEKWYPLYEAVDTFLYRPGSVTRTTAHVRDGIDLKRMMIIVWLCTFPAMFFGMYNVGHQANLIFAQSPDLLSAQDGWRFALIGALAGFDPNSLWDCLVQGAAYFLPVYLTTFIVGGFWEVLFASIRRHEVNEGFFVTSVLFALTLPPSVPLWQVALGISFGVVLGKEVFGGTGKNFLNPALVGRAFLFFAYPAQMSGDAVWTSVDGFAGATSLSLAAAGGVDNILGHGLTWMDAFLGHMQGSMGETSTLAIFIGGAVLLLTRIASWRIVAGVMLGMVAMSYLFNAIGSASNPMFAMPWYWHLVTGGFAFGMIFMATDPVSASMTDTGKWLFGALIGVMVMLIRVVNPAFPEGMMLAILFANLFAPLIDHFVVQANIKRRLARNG
T2 sequence (Q9HZK8 whole entry partner): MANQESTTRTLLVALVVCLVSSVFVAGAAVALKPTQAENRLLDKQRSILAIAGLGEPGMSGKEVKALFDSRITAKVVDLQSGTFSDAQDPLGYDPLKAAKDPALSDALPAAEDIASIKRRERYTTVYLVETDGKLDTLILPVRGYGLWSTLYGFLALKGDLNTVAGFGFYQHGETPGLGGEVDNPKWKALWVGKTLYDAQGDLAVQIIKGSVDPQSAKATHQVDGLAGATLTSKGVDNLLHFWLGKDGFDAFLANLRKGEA
T2 sequence (Q9HZK9 whole entry partner): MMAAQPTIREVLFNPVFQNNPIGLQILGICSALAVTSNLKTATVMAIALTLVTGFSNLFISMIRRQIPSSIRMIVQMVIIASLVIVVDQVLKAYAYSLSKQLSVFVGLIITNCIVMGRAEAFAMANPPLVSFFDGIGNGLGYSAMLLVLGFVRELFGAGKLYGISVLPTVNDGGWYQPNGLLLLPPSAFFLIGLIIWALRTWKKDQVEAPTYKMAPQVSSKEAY
T2 sequence (Q9HZL0 whole entry partner): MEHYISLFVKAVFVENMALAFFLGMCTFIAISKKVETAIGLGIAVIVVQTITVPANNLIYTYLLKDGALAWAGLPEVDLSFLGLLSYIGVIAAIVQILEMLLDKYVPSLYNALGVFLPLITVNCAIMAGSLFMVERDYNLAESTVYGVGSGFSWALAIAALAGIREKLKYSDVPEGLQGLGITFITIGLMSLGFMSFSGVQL
T1 sequence (Q9HZK9 whole entry): as the sequence (Q9HZK9 whole entry partner) above
T1 sequence (Q9HZL1 whole entry, further chain): as the sequence (Q9HZL1 whole entry) above
T1 sequence (Q9HZK7 whole entry): as the sequence (Q9HZK7 whole entry partner) above
T1 sequence (Q9HZK6 whole entry, further chain): as the sequence (Q9HZK6 whole entry partner) above
T1 sequence (Q9HZL0 whole entry, further chain): as the sequence (Q9HZL0 whole entry partner) above
T1 sequence (Q9HZK8 whole entry, further chain): as the sequence (Q9HZK8 whole entry partner) above

In general, Ki refers to a measure of affinity in units of concentration, obtained from inhibition or displacement. A high value points to a looser hold on the target. Compound `CCCCCCCc1cc(O)c2ccccc2[n+]1[O-]` [HQNO] displayed an inhibition constant (Ki) at NQR of 2 µM.

Consider `NC(=O)C1=CN([C@@H]2O[C@H](COP(=O)(O)OP(=O)(O)OC[C@H]3O[C@@H](n4cnc5c(N)ncnc54)[C@H](O)[C@@H]3O)[C@@H](O)[C@H]2O)C=CC1` [NADH], for which the “ubiquinone reductase activity at 282 nm” value in test [1] (250 μM NADH) is given as “purified P. aeruginosa NQR (F) using as substrates NADH (black) or deamino NADH”.

For the compound `NC(=O)C1=CN([C@@H]2O[C@H](COP(=O)(O)OP(=O)(O)OC[C@H]3O[C@@H](n4cnc5c(=O)[nH]cnc54)[C@H](O)[C@@H]3O)[C@@H](O)[C@H]2O)C=CC1` [deamino NADH], the “ubiquinone reductase activity at 282 nm” value in test [1] (250 μM deamino NADH) is “purified P. aeruginosa NQR (F) using as substrates NADH (black) or deamino NADH”.
